The structures appear in SMILES notation.

For this test, the system named is mutant (Q111) Htt. In words: Newly synthesized Htt transcripts, 4sU metabolic labeling, Q111 cells. Type of test: cell-based, mouse. Conditions: 4sU for 2 hours. The procedure: Metabolic labeling of newly synthesized RNA with 4-thiouridine (4sU)—STHdh Q111 and STHdh Q7 cells (collected from 10 cm dishes) were treated for 30 minutes with DMSO (vehicle control) or the tested SPI compound (e.g., SPJ-21). Following, 4-thiouridine (4sU, 150 μM final concentration) was added for additional 2 hours. The labeling was terminated by removing the 4sU-containing medium and washing the cells 3 times with phosphate-buffered saline (PBS). Total RNA was extracted as described above. […]
Huntington's disease (HD) is an inherited genetic disorder caused by expansion trinucleotide CAG repeats (36 and higher) encoding glutamine (Q) in the huntingtin (Htt) gene. […] The two cell lines were treated for 48 hours with the identified SPIs and following the levels of Htt mRNA were determined. […] Moreover, the levels measured from the second exon relative to the first were fairly higher in Q7 compared to Q111 and this small difference was kept all along the gene. […]
In assays conducted for showing that the selective effect on mutant Htt is at the transcription level, the cells were metabolically labeled with 4-thio-uridine (4sU) for 2 hours in the presence of DMSO of the indicated SPI analogs. […] Newly synthesized Htt transcript levels were determined by RT-qPCR.

`COc1ccc(C=CC(=O)c2cc(O)ccc2O)cc1` [SPI-21]: the “levels of newly synthesized Q111 Htt” value is “diminished”.

These data come from patent US12661353B2, “SPT5 inhibitors and uses thereof” (Yeda Research and Development Co. Ltd., priority 2020, dated 2026).
